Assay results published in the Biogen ADME set (Fang et al. 2023).
≈ marks a conversion by molar mass, not a printed value.

Settings: for aqueous solubility: pH 6.8

SMILES	MDR1-MDCK efflux ratio	intrinsic clearance, human liver microsomes	intrinsic clearance, rat liver microsomes	aqueous solubility	fraction unbound, rat plasma	fraction unbound, human plasma
O=c1ccc(-c2ccc(F)cc2)nn1Cc1ccncc1	0.674	7.74 mL/min/kg	56.5 mL/min/kg	46 µg/mL (≈ 163 µM)		
CCc1csc(NC(=O)c2ccc3c(c2)nc(C)n3C)n1		33.9 mL/min/kg	108 mL/min/kg	39.8 µg/mL (≈ 132 µM)		
O=C(CN1CCCN(c2nccs2)CC1)Nc1cccc(Cl)c1	0.851	442 mL/min/kg	1950 mL/min/kg	37.1 µg/mL (≈ 106 µM)		
CN(C)Cc1ccnc(NC(=O)c2ccsc2)c1		6.67 mL/min/kg	397 mL/min/kg			
COCC(=O)N1CCN2C(=O)NC[C@H]2C1				38.4 µg/mL (≈ 180 µM)		
CCc1cc(CNC(=O)Nc2ccc(N3CCSCC3)cc2)on1	19.2	35.9 mL/min/kg	1430 mL/min/kg			
Cc1ccc2c(c1)c(Cn1ccnc1-c1cccc(C)n1)nn2C	0.679	122 mL/min/kg	1920 mL/min/kg	32.9 µg/mL (≈ 103 µM)		
O=C(C1CCCN(c2ccccn2)C1)N1CCc2ccccc2C1 (stereo not drawn)		172 mL/min/kg	1520 mL/min/kg	49.2 µg/mL (≈ 153 µM)		
CCOc1ccc(C(=O)Nc2cc(C(=O)OC)ccc2N2CCN(C(C)=O)CC2)cc1	5.81	21.8 mL/min/kg	444 mL/min/kg	2.41 µg/mL (≈ 5.66 µM)		
Cc1cc(N)n(-c2ncnc3sc(C)c(-c4ccc(Cl)cc4)c23)n1	0.712	94.2 mL/min/kg	670 mL/min/kg	6.32 µg/mL (≈ 17.8 µM)		
Cn1cc(CCNc2cncc(Br)c2)cn1	0.655	12 mL/min/kg	110 mL/min/kg	40.4 µg/mL (≈ 144 µM)		
N#Cc1cccc(NC(=O)C2CCC2)c1				33.8 µg/mL (≈ 169 µM)		
Cc1sc2nc(CN3CCOCC3)nc(N3CCN(c4ccncc4)CC3)c2c1C	28.9	18.3 mL/min/kg	281 mL/min/kg	76.6 µg/mL (≈ 180 µM)		
O=C(c1ccc(-c2ccncc2)cc1)N1CCC(F)(F)CC1		≤ 4.74 mL/min/kg	43.2 mL/min/kg			
N#Cc1cccc(CNCc2ccccn2)c1	0.554	≤ 4.74 mL/min/kg	30.3 mL/min/kg			
O=C(NCC1CC1)c1ccc(-n2ccnc2)nc1	1.08	≤ 4.74 mL/min/kg	23.2 mL/min/kg	45.2 µg/mL (≈ 186 µM)		
CN(C)c1cc(CNC(=O)C2CCOCC2)ccn1	4.87	≤ 4.74 mL/min/kg	≤ 10.7 mL/min/kg	41.2 µg/mL (≈ 156 µM)		
CC(=O)NC1(c2ccc(F)cc2)CCN(Cc2ccc(OC3CCCC3)cc2)CC1		24.8 mL/min/kg	346 mL/min/kg	72.4 µg/mL (≈ 176 µM)		
Cc1cccc(NC(=O)c2ccccc2-c2ccccc2)n1	0.551	64.2 mL/min/kg	686 mL/min/kg	33.1 µg/mL (≈ 115 µM)		
COc1ccc(C2(NCc3ccc(N4CCCC4=O)cc3)CC2)cc1	0.512	13.4 mL/min/kg	266 mL/min/kg	81.5 µg/mL (≈ 242 µM)		
CCCc1nnc(N2CCC3(CCCC3)C2)s1	0.525	86.7 mL/min/kg	2160 mL/min/kg			

SMILES	MDR1-MDCK efflux ratio	intrinsic clearance, human liver microsomes	intrinsic clearance, rat liver microsomes	aqueous solubility	fraction unbound, rat plasma	fraction unbound, human plasma
CC(=O)N(CC(N)=O)c1ccc(C)cc1		5.04 mL/min/kg	42.8 mL/min/kg			
CS(=O)(=O)N(CC(=O)Nc1ccccc1C(=O)NCc1ccco1)c1ccc(F)cc1	9.61	131 mL/min/kg	1110 mL/min/kg	35.1 µg/mL (≈ 78.9 µM)		
c1ccc(CO[C@@H]2CCC[C@H]2n2cc(-c3nccs3)nn2)cc1	0.658	63.2 mL/min/kg	3020 mL/min/kg	15.7 µg/mL (≈ 48 µM)		
Cc1ccc(NC(=O)c2cc(-c3ccccn3)nc3ccccc23)nc1				0.18 µg/mL (≈ 0.529 µM)		
O=c1c2cccc(C(F)(F)F)c2ncn1C1CCCC1	0.528	115 mL/min/kg	317 mL/min/kg			
NCc1nnc(CCc2ccccc2)o1		≤ 4.74 mL/min/kg	≤ 10.7 mL/min/kg			
Cc1cc(CNC(=O)N(C)Cc2c(C)nn(C)c2C)cnc1C	94.1	≤ 4.74 mL/min/kg	112 mL/min/kg			
CCc1ccc(CNc2nncs2)o1	0.666	7.77 mL/min/kg	46.9 mL/min/kg			
COc1ccc(C(C)(C)C)cc1NC(=O)C1(C#N)CCCC1	0.478			0.3 µg/mL (≈ 0.999 µM)		
CCc1nnc(N2CC(N(C)C)C2)c(C#N)c1CC	0.843	9.15 mL/min/kg	130 mL/min/kg			
CC(C)CC(NC(=O)C(O)C(N)Cc1ccccc1)C(=O)O (stereo not drawn)	0.744				0.347	
CCc1nc2ccccc2n1CC(=O)Nc1ncc(C)s1	29.4	8.53 mL/min/kg	348 mL/min/kg	49.2 µg/mL (≈ 164 µM)		
CCC(CC)NC(=O)c1ccc(C#N)c(C)n1		6.17 mL/min/kg	50 mL/min/kg	52.9 µg/mL (≈ 229 µM)		
COc1cc(C)cc(OC)c1-c1ccc(OCC(N)=O)cc1		≤ 4.74 mL/min/kg	253 mL/min/kg			
Cc1ccc(C)n1-c1ccc(CNS(C)(=O)=O)cc1				24.2 µg/mL (≈ 86.9 µM)		
CN(C)c1ccnc(NC(=O)c2cnsn2)c1		163 mL/min/kg	280 mL/min/kg			
O=C(Nc1cn(CCOCC(F)(F)F)nc1-c1ccccn1)c1coc(-c2cn[nH]c2)n1	6.03	51.7 mL/min/kg	518 mL/min/kg			
COc1ccccc1-c1cc(NC(=O)c2cccc(N3CCNC3=O)c2)[nH]n1	60.4	7.53 mL/min/kg	103 mL/min/kg	5.95 µg/mL (≈ 15.8 µM)	0.00181	0.004
COc1ccc(-c2nnc3ccc(C(F)(F)F)cn23)cc1OC(C)C	1.11	31.2 mL/min/kg	132 mL/min/kg	22.9 µg/mL (≈ 65.2 µM)		
Cc1cncc(CN2CCC(=C3c4ccc(Cl)cc4CCc4cccnc43)CC2)c1	1.45	511 mL/min/kg	1010 mL/min/kg			

The next lines start with the values.

MDR1-MDCK efflux ratio	intrinsic clearance, human liver microsomes	intrinsic clearance, rat liver microsomes	aqueous solubility	fraction unbound, rat plasma	fraction unbound, human plasma	SMILES
6.29	101 mL/min/kg	513 mL/min/kg	17 µg/mL (≈ 52.3 µM)			CC(C)C[C@@H](CO)n1cc(-c2ccccc2Cn2cccn2)nn1
128	≤ 4.74 mL/min/kg	≤ 10.7 mL/min/kg	34.1 µg/mL (≈ 108 µM)			CC(C)c1noc2nc(C3CC3)cc(C(=O)N3CC[C@H](N)C3)c12
1.69	167 mL/min/kg	283 mL/min/kg	70 µg/mL (≈ 165 µM)			CCC(=O)N1CCCc2cc(C(O)CN3CCN(c4ccc(OC)cc4)CC3)ccc21 (stereo not drawn)
14.3	36.3 mL/min/kg	321 mL/min/kg				C[C@@H]1CN(Cc2ccccc2)C[C@H]1c1nc2c(cnn2C2CCOCC2)c(=O)[nH]1
0.854	≤ 4.74 mL/min/kg	1520 mL/min/kg				CN1CCC(CNc2nccc3cccnc23)CC1
1.52	≤ 4.74 mL/min/kg	28.6 mL/min/kg	51.2 µg/mL (≈ 183 µM)			O=C1CNC(=O)N1CCCN1CCc2sccc2C1
0.66	114 mL/min/kg	883 mL/min/kg	25.8 µg/mL (≈ 68.2 µM)			COc1ccc(Cc2cccc(C3CCN(C(=O)C4CCCC4)CC3)n2)cc1
			64.8 µg/mL (≈ 145 µM)			Cc1cc(F)c(C(=O)Nc2cccc(-c3nncn3C(C)C)n2)cc1-n1cnc(C2CC2)c1
24.3	≤ 4.74 mL/min/kg	50.4 mL/min/kg	44.6 µg/mL (≈ 109 µM)			CC(C)c1cc(C(=O)N2Cc3ccc(CN4CCN(C)CC4)cc3C2)c(O)cc1O
54.3	22.5 mL/min/kg	151 mL/min/kg				Cc1cc(Nc2nnc(C)s2)cc(C2CN(C(=O)c3c(C(C)C)noc3C)CCO2)n1 (stereo not drawn)
1.48	679 mL/min/kg	2090 mL/min/kg	24.3 µg/mL (≈ 55 µM)			O=C(c1ccc2oc(CCCc3ccccc3)nc2c1)N1CCC(Oc2cccnc2)CC1
4.86	≤ 4.74 mL/min/kg	11.2 mL/min/kg	19.8 µg/mL (≈ 62.4 µM)			CNC(=O)C1CCN(Cc2ncc(-c3ccc(F)cc3)o2)CC1
2.83	≤ 4.74 mL/min/kg	112 mL/min/kg				CCn1nc(CNC(=O)C2CCOCC2)c2ccccc21
2.71	≤ 4.74 mL/min/kg	≤ 10.7 mL/min/kg	61.2 µg/mL (≈ 228 µM)			O=C(c1ccncc1)N1CCC(c2cnccn2)CC1
21	11.3 mL/min/kg	20.1 mL/min/kg				CCn1c(C(=O)N(C2CC2)C2CC2)cc2c3c(ncn3C)c(Nc3cc(C)n(C)n3)nc21
0.425	≤ 4.74 mL/min/kg	≤ 10.7 mL/min/kg	69.3 µg/mL (≈ 229 µM)			CC(C)Cc1sc(N)nc1-c1ccc(P(=O)(O)O)o1
8.7	11.4 mL/min/kg	54.5 mL/min/kg	26.7 µg/mL (≈ 73.4 µM)			Cc1ccccc1OC1CCN(C(=O)Nc2ccc3c(c2)ncn3C)CC1
9.05	7.62 mL/min/kg	30.3 mL/min/kg				CC(C)CCN1CCc2nc3cc(C4CC4)nn3c(O)c2C1
